We go through two compounds from US12245597B2 (priority 2017, dated 2025).

The test system of one test is L. crescens. The class given is cell-based, Liberibacter crescens. To be noted: control, at each tested level.
The subject of test [1] is CLas. The class given is in vivo, Candidatus Liberibacter asiaticus in citrus plants. To be noted: after twenty-eight days; soil drench, 10 Brix; p<0.05.
In test [2] the test system is CLas. The class given is in vivo, Candidatus Liberibacter asiaticus in citrus plants. To be noted: forty-eight hours after treatment; soil drench.

The inhibition is the percentage by which the read-out fell short of the control. Read a low inhibition as a weak effect. Regarding `CN(C)[C@@H]1C(=O)C(C(N)=O)=C(O)[C@@]2(O)C(=O)C3=C(O)c4c(O)cccc4[C@@](C)(O)[C@H]3[C@H](O)[C@@H]12` [Oxytetracyclin], the inhibition in the test on L. crescens came out at 100%.
As for `[H]/N=C(/N)N[C@H]1[C@H](O)[C@@H](O)[C@H](O[C@@H]2O[C@@H](C)[C@](O)(C=O)[C@H]2O[C@@H]2O[C@@H](CO)[C@H](O)[C@@H](O)[C@@H]2NC)[C@@H](N/C(N)=N\[H])[C@@H]1O` [Streptomycin], the “number of copies of CLas genes, change from the initial value” in the test on CLas [1] is listed as “significant reduction”. Moreover, the “change in PMA titer (positive = reduction in live bacteria)” value with CLas [2] is “positive values”.
